The record followed here is patent publication US20160243011A1, “Formulations Comprising Idebenone, N-Acetyl-S-Farnesyl-L-Cysteine and Ergothioneine and Uses Thereof” (ELIZABETH ARDEN, INC., priority 2012, published 2016).

Test [1] relates to IL-6. Put plainly: UVB induced IL-6 release in NHEKs (ELISA). It counts as cell-based. To be noted: Homo sapiens, light or radiation study; Compound (0.1 μM); NHEK, UVB 25 mJ/cm^2, medium assayed 24 h later; read-out: IL-6 (% inhibited). On the technique in general: In an ELISA, binding on a coated surface is turned into a signal by an enzyme label.
The subject of test [2] is TNFα. Put plainly: UVB induced TNFα release in NHEKs (ELISA). In kind it is cell-based. To be noted: Homo sapiens, light or radiation study; Compound (0.1 μM); NHEK, UVB 25 mJ/cm^2, medium assayed 24 h later; read-out: TNFα (% inhibited).
The next test deals with EpiDerm™ inserts. Put plainly: UVB induced sun burn cell (SBC) formation using EpiDerm. In kind it is cell-based. The conditions noted are these: for EPF Score: Example 7, 1 mM. The procedure:
EpiDerm™ inserts (MatTek®) were topically treated in the presence of each test ingredient for 6 hours, after which they were removed, inserts were irradiated with 200 mJ/cm^2 UVB, and they fixed for H&E staining after 24 hours. The number of sun burn cells (SBCs) (white arrows) was counted. All compounds were tested at 1 mM.

The subject of another test is Rat liver microsomes. Put plainly: Microsome pro-oxidative system measuring secondary oxidation by-products (TBARS). In kind it is biochemical. To be noted: 100 μM; for Lipid MDA % protection: NADPH/ADP/Fe^3+ oxidative system, 24 hours; for EPF Score: Example 5. How it is done: Rat liver microsomes were oxidized with or without test ingredients at 0.1 mM using a NADPH/ADP/Fe^3+ oxidative system. Secondary oxidation products were quantified after 24 hours incubation by measuring MDA equivalents directly utilizing the production of Thiobarbituric acid-reactive substances (TBARS). Results are expressed as the change in optical density (OD) at 532 nm to a degree that is proportional to an effective oxidation inhibition based on 1,1,3,3-tetraethoxypropane as MDA-TBA production standard.

The test system of test [3] is Primary Human Epidermal Keratinocytes (NHEKs). Put plainly: UVB induced DNA damage (thymine dimer formation). In kind it is cell-based. The conditions noted are these: Example 6; 1 μM.
In test [4] the test system is IL-6. Put plainly: UVB induced IL-6 release in NHEKs (ELISA). In kind it is cell-based, Human. The conditions noted are these: for EPF Score: Example 8 (8A), IL-6. How it is done:
(§1) In order to evaluate the impact of UV-induced inflammation in human skin, primary cell monolayer cultures were exposed to different types of UV radiation, i.e. UVB and UVA. Primary Human Dermal Fibroblasts (HDFs) were irradiated with UVA (350 nm) and Normal Human Epidermal Keratinocytes cells (NHEKs) with UVB (305 nm). HDFs were cultured in Dulbecco's Modified Eagle Medium (DMEM) basal medium (Life Technologies, Grand Island, N.Y.), supplemented with 10% v/v fetal bovine serum (FBS), (referred to as supplemented media) at 37° C. with 5% CO2 NHEKs were cultured in Epilife® basal medium (Life Technologies, Grand Island, N.Y.), supplemented with 60 μM calcium, 0.2% v/v bovine pituitary extract (BPE), 5 μg/ml bovine insulin, 0.18 μg/ml hydrocortisone, 5 μg/ml bovine transferrin, 5 μg/ml, 0.2 ng/ml human epidermal growth factor (referred to as supplemented media) at 37° C. with 5% CO2.
(§2) In order to avoid possible immunomodulating effects of these agents during compound treatments, cells were kept in DMEM or Epilife® basal medium without growth supplements (referred to as depleted media). Cells were plated at a concentration of 3.8×10^4 cells/well in supplemented media in 24-well plates. After cells were allowed to adhere (24 hours), media was changed to depleted media.
(§3) For “blend” testing, a formulation of idebenone, Arazine™ and ergothioneine (1:1:1 molar ratio) was prepared before mixing to medium. Six hours after pre-treatments, to induce a pro-inflammatory response, pre-treatment media was removed and replaced with phosphate-buffered saline (PBS).
(§4) Immediately after UV irradiation, cells were placed in fresh depleted medium for 24 hours. Cell cultures were examined for viability by the reduction of 3-(4,5-dimethylthiazol-2-yl)-5-(3-carboxymethoxyphenyl)-2-(4-sulfophenyl)-2H-tetrazolium (MTS assay; Promega, Madison, Wis.) to determine the percentage of viable cells after compound and UV irradiation. Media supernatants were harvested from non-irradiated and UV irradiated cells and assayed by enzyme-linked immunosorbent assays (ELISA) for the stimulated release of pro-inflammatory mediators. NHEKs were assayed for concentrations of Interleukin-6 (IL-6) and Tumor Necrosis Factor-alpha (TNF-alpha) using appropriate protein standards (BD Biosciences; San Jose, Calif.). HDFs were assayed for concentrations of IL-6 (BD Biosciences) or pro-Matrix Metalloproteinase-1 (pro-MMP-1) using appropriate protein standards (R&D Systems; Minneapolis, Minn.).
(§5) Control groups contained non-irradiated cells. Twenty four hours later, cell medium were assayed for the presence of pro-inflammatory mediators by ELISA.
(§6) To test these anti-oxidants for anti-inflammatory properties, primary Human Epidermal Keratinocytes (NHEKs) were cultured in the presence of each ingredient for 6 hours. Ingredients were then removed and cells were irradiated with 25 mJ/cm2 UVB. Media supernatants were collected after 24 hours and analyzed by ELISA for IL-6 and TNF-α. All ingredients were tested at 1 μM.

Test [5] is described as follows: Radical scavenging capacity (oxidation of ABTS by metmyoglobin). The conditions noted are these: for EPF Score: Example 3, scores: 10^−3 M=5, 10^−4 M=15, 10^−5 M=20; for Effective and oxidant conc: lowest effective concentration, OD 750 nm. It counts as biochemical. An excerpt:
This assay analyzed the overall antioxidant capacity of test ingredients for the ability to inhibit the oxidation of 2,2′-azino-bis(3-ethylbenzothiazoline-6-sulphonic acid) (ABTS). to ABTS.^+ by metmyoglobin. The testing involved the suppression of optical density (OD) at 750 nm to a degree that is proportional to an effective oxidation inhibition. The EPF scoring system was based on the lowest effective concentration as previously described by MacDaniel et al., 2005 and scores were assigned as follows: 10^−3 M=5; 10^−4 M=15; 10^−5 M=20.

Test [6] in a line: Total Environmental Protection Factor (EPF) score. To be noted: 180 point scoring system (20 points for each endpoint measured).
Another test deals with Human LDL. Put plainly: LDL pro-oxidative system measuring primary oxidation by-products. In kind it is biochemical. To be noted: 100 μM; for Lipid hydrogen-peroxide % protection: CuSO4 oxidative system, 24 hours; for EPF Score: Example 4. How it is done: Human LDL was oxidized with or without 0.1 mM materials under a CuSO4 oxidative system in Ham's F-10 medium.
Another test concerns pro-MMP-1. Put plainly: UVA induced pro-MMP-1 production in HDFs (ELISA). In kind it is cell-based, Human. To be noted: for EPF Score: Example 9 (9B), MMP-1. The procedure: as §1, §2, §3, §4
(§7) To test these anti-oxidants for anti-inflammatory and anti-aging properties, primary Human Dermal Fibroblasts (HDFs) were cultured in the presence of each ingredient for 6 hours. […] Media supernatants were collected after 24 hours and analyzed by ELISA for IL-6 and pro-MMP-1. All ingredients were tested at 1 μM.

Test [7] deals with IL-6. Put plainly: UVA induced IL-6 production in HDFs (ELISA). In kind it is cell-based, Human. To be noted: for EPF Score: Example 9 (9A), IL-6. The procedure: as §1, §2, §3, §4, §7
Test [8] relates to TNFα. Put plainly: UVB induced TNFα release in NHEKs (ELISA). It counts as cell-based, Human. To be noted: for EPF Score: Example 8 (8B), TNFα. How it is done:
as §1, §2, §3, §4, §5, §6

The subject of test [9] is Primary Human Epidermal Keratinocytes (NHEKs). Put plainly: UVB induced DNA damage (thymine dimer formation). In kind it is cell-based. The conditions noted are these: 1 μM, 6 hours pre-treatment; UVB 200 mJ/cm^2. How it is done: Primary Human Epidermal Keratinocytes (NHEKs) were cultured in the presence of each test ingredient (1 μM) for 6 hours and later removed prior to UVB irradiation (200 mJ/cm^2). Cells were fixed after 1 hour and stained with anti-thymine dimer antibody. Positive rounded stained cells were counted using a fluorescence microscope.

[10] abbreviates: 1 μM, 6 hours pre-treatment, NHEK, UVB 25 mJ/cm2, 24 hours.
Where [11] appears, read: 1 μM, 6 hours pre-treatment, HDF, UVA 12.5 J/cm^2, 24 hours.

Regarding `CC(=O)N[C@@H](CSC/C=C(\C)CC/C=C(\C)CCC=C(C)C)C(=O)O` [Arazine ™, N-acetyl-S-farnesyl-L-cysteine], the inhibition at 0.1 µM was 28% with IL-6 [1] and 33% in the test on TNFα [2].
For `C[N+](C)(C)C(Cc1c[nH]c(=S)[nH]1)C(=O)O` (centres unmarked) [Ergothioneine, 3-(2-sulfanylidene-1,3-dihydroimidazol-4-yl)-2-(trimethylazaniumyl)propanoate] the same measures were 12% and 35%.
Taken in the same sequence, the figures for `COC1=C(OC)C(=O)C(CCCCCCCCCCO)=C(C)C1=O` [Idebenone] were 15% and 47%.
Turning to `O=C1O[C@H]([C@@H](O)CO)C(O)=C1O` [Vitamin C, ascorbic acid], the “EPF Score” value is recorded as 9 in the test with EpiDerm™ inserts; 2 with Rat liver microsomes; 6 in test [3]; 4 with IL-6 [4] (1 μM); 20 in test [5]; 1 in the test with Human LDL. The “EPF Score” value is 3 with pro-MMP-1 (1 μM), 17 in the test on IL-6 [7] (1 μM) and 9 in the test on TNFα [8] (1 μM). The molecule further returned an inhibition at 1000 µM in the test with EpiDerm™ inserts (light or radiation study, 1 mM topical, 6 hours, UVB 200 mJ/cm^2, fixed after 24 hours) of 31%. Besides, the “Lipid MDA % protection” value in the test on Rat liver microsomes came to 7%. Besides, the inhibition at 1 µM in the test on IL-6 [4] (Homo sapiens, light or radiation study, 6 hours pre-treatment, NHEK, UVB 25 mJ/cm2, 24 hours, read-out: IL-6 (% inh)) worked out at 13%; in the test with pro-MMP-1 (Homo sapiens, light or radiation study, 6 hours pre-treatment, HDF, UVA 12.5 J/cm^2, 24 hours, read-out: MMP-1 (% inh)) it was 13%; with IL-6 [7] (Homo sapiens, light or radiation study, 6 hours pre-treatment, HDF, UVA 12.5 J/cm^2, 24 hours, read-out: IL-6 (% inh)), 81%; with TNFα [8] (Homo sapiens, light or radiation study, 6 hours pre-treatment, NHEK, UVB 25 mJ/cm2, 24 hours, read-out: TNFα (% inh)), 36%. Moreover, the “Effective and oxidant conc” value in test [5] is 0.03 mM. The “Total EPF score (TTL)” value in test [6] came out at 73. The “Lipid hydrogen-peroxide % protection” value with Human LDL was determined as 0%. Further, the “DNA damage % protection” value in [9] is 16%.
As to tocopherol [Vitamin E], the SBC % inhibition in the test on EpiDerm™ inserts (1 mM topical, 6 hours, UVB 200 mJ/cm^2, fixed after 24 hours) stood at 21%. Further, the “EPF Score” value in the test with EpiDerm™ inserts was 6; in the test with Rat liver microsomes, 12; in [3], 3; with IL-6 [4] (1 μM) it was 4; in [5], 20; in the test on Human LDL, 12. For the same molecule, the “EPF Score” value worked out at 16 in the test on pro-MMP-1 (1 μM), 18 with IL-6 [7] (1 μM) and 4 in the test on TNFα [8] (1 μM). The “Lipid MDA % protection” value in the test with Rat liver microsomes worked out at 45%. The “IL-6 (% inh)” value is given as 12% in the test on IL-6 [4] (setting [10]) and 82% with IL-6 [7] (setting [11]). Moreover, the “Effective and oxidant conc” value in test [5] turned out to be 0.06 mM. In test [6], the “Total EPF score (TTL)” value came to 95. For the same molecule, the “Lipid hydrogen-peroxide % protection” value in the test with Human LDL is recorded as 56%. In addition, the “MMP-1 (% inh)” value in the test with pro-MMP-1 (setting [11]) is listed as 80%. Moreover, the “TNFα (% inh)” value in the test on TNFα [8] (setting [10]) amounted to 16%. Moreover, in test [9], the “DNA damage % protection” value stood at 9%.
